Test results as given in article PMC12090182, “Repurposing of the RIPK1-Selective Benzo[1,4]oxazepin-4-one Scaffold for the Development of a Type III LIMK1/2 Inhibitor” (ACS Chemical Biology, 2025).

Target: 468 kinases including some pathogenic mutants (Mycobacterium tuberculosis, UniProt P9WI81)
Assay: biochemical
Format: binding

In the case of `CN1C(=O)[C@@H](N2CCc3c(nn(Cc4ccccc4)c3C(N)=O)C2=O)COc2cc(Cl)ccc21` [Compound 10, (S)-2-benzyl-6-(8-chloro-5-methyl-4-oxo-2,3,4,5-tetrahydrobenzo[b][1,4]oxazepin-3-yl)-7-oxo-4,5,6,7-tetrahydro-2H-pyrazolo[3,4-c]pyridine-3-carboxamide], the “Percent Control” value is reported as 100%.
